Laboratory results taken from patent publication US20100272642A1, “PET PROBE HAVING AN ALKOXY GROUP SUBSTITUTED BY FLUORINE AND HYDROXY GROUP” (TOHOKU UNIVERSITY, priority 2007, published 2010).
“Also recorded” adds a separate entry of the source.

Legend:
[1] = Evaluation of blood-brain barrier permeability and osseous accumulation of the [18F] labeled compound in mice; type: in vivo, mouse; details: for % ID/g or ml (mean ± standard deviation), Blood plasma / % ID/g or ml (mean ± standard deviation), Bone / % ID/g or ml (mean ± standard deviation), Brain: male ICR mice, tail vein administration; for % ID/g or ml (mean ± standard deviation), Bone: bone (femur); for osseous accumulation: mice, 2, 30, 60 minutes after administration, in words; for wash-out from the brain / defluorination in vivo: mice; for wash-out from the brain: compared with [18F]BF-227; for defluorination in vivo: suggested from osseous accumulation
Protocol: The physiological saline solution containing [^18F] BF-837 or [^18F] THK-853 was administered into the tail vein of the male ICR mice (6-7 weeks of age), and blood-brain barrier permeability and osseous accumulation of each labeled compound were evaluated based on accumulation of radioactive in the brain tissue and the bone tissue at 2, 30, 60 minutes after.
The radiochemical purity of the used physiological saline containing the labeled compound used was 95% or greater, and specific activity was 18.5 to 148 GBq/μmol, and 1.11-2.22 MBq of the labeled compound per mouse was administered. In the evaluation of radiation accumulation, the ratio of radiation per unit weight of the evaluation tissue against the whole radiation administered (% Injected Dose/g of tissue; % ID/g) was used as the index. For measurement of the radiation, the gamma counter (1480 WIZARD, PerkinElmer, Inc.) was used. The experimental procedure was as follows. The labeled compound was administered into the caudal vein and dislocation in the cervical spine of the mice was conducted under the ether anesthesia at 2, 30, and 60 minutes after, and after promptly harvesting the blood from the heart, the whole brain (including the cerebellum, brain stem) and the femur were removed.

amyloid β protein = target: T1, amyloid β protein (Homo sapiens, UniProt P05067); test: Staining test on the brain section of patients with Alzheimer's disease; type: binding; details: 100 μM compound in 50% ethanol, 10 minutes, fluorescence microscope
T1 construct: tissue Choju Medical Institute in Fukushimura Hospital; host or cells: Paraffin-embedded post-mortem human brain sections (temporal lobe or hippocampus)
T1 sequence (P05067 672-713 limits assumed): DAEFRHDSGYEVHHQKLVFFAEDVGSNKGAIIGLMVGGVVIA
Text: The procedure of […] of the compounds of the present invention on the brain section of patients with Alzheimer's disease is explained as follows.
(1) The brain samples from the temporal lobe or hippocampus of patients pathologically definitely diagnosed as having Alzheimer's disease and normal elderly individuals were used. The samples were obtained from Choju Medical Institute in Fukushimura Hospital, our collaborative research institute, and the consent for the use for research purpose was obtained from the patients' deceased family members (Fukushimura Hospital, Ethic Committee Approval No. 20).
(2) The brain tissue embedded in the paraffin was thinly sectioned into 6 or 8 μm in thickness, extended on the slide glass, and dried. The paraffined brain section was deparaffined by washing with xylene 10 minutes×2, 100% ethanol 5 minutes×2, 90% ethanol 5 minutes, and running water 10 minutes in this order.
(3) As the pretreatment of staining by the compound of the present invention, the treatment to remove autofluorescence by lipofuscin was conducted. […]
(4) From 100 μM of the compound solution of the present invention dissolved in 50% ethanol, about 150 μl was added dropwise, and was reacted for 10 minutes. After being soaked in the tap water 5 times, it was encapsulated with Flour Save Reagent (Calbiochem) and examined with a fluorescence microscope (Nikon, Eclipse 80i). […]

SMILES	% ID/g or ml (mean ± standard deviation), Blood plasma ([1]; 2 minutes after)	% ID/g or ml (mean ± standard deviation), Blood plasma ([1]; 30 minutes after)	% ID/g or ml (mean ± standard deviation), Blood plasma ([1]; 60 minutes after)	% ID/g or ml (mean ± standard deviation), Bone ([1]; 2 minutes after)	% ID/g or ml (mean ± standard deviation), Bone ([1]; 30 minutes after)	% ID/g or ml (mean ± standard deviation), Bone ([1]; 60 minutes after)	% ID/g or ml (mean ± standard deviation), Brain ([1]; 2 minutes after)	% ID/g or ml (mean ± standard deviation), Brain ([1]; 30 minutes after)	% ID/g or ml (mean ± standard deviation), Brain ([1]; 60 minutes after)	osseous accumulation [1]	wash-out from the brain [1]	defluorination in vivo [1]	binding to amyloid β protein in the brain section (amyloid β protein)
CNc1ccc(-c2nc3ccc(OC(CO)CF)cc3s2)cc1 (stereo not shown) [[^18F]THK-837]	3.30 ± 0.17 % ID/g or ml	1.73 ± 0.26 % ID/g or ml	1.35 ± 0.77 % ID/g or ml	1.80 ± 0.17 % ID/g or ml	1.27 ± 0.11 % ID/g or ml	1.64 ± 0.12 % ID/g or ml	6.54 ± 0.19 % ID/g or ml	0.94 ± 0.08 % ID/g or ml	0.43 ± 0.03 % ID/g or ml	not observed; also recorded: scarcely observed	clearly more excellent	not subjected to defluorination	
CNc1ccc(/C=C/c2ccc(OC(CO)CF)cc2)cc1 (stereo not shown) [THK-853]													bound to amyloid β protein
CNc1ccc(-c2nc3ccc(OC(CO)CF)cc3s2)cc1 (stereo not shown) [THK-837]													bound to amyloid β protein
CN(C)c1ncc(C=Cc2nc3ccc(OCCF)cc3o2)s1 [[^18F]BF-227, 2-[2-(2-dimethylaminothiazole-5-yl)ethenyl]-6-(2-fluoroethoxy)benzoxazole, reference compound]	2.93 ± 0.08 % ID/g or ml	2.14 ± 0.17 % ID/g or ml	2.09 ± 0.15 % ID/g or ml	1.59 ± 0.27 % ID/g or ml	4.38 ± 1.24 % ID/g or ml	7.04 ± 0.75 % ID/g or ml	6.05 ± 0.45 % ID/g or ml	1.91 ± 0.05 % ID/g or ml	1.67 ± 0.14 % ID/g or ml	time dependence marked accumulation was observed		easily subjected to defluorination	
CNc1ccc(/C=C/c2ccc(OC(CO)CF)cc2)cc1 (stereo not shown) [[^18F]THK-853]	2.81 ± 0.37 % ID/g or ml	2.11 ± 0.50 % ID/g or ml	1.59 ± 0.12 % ID/g or ml	1.64 ± 0.19 % ID/g or ml	0.98 ± 0.20 % ID/g or ml	0.96 ± 0.04 % ID/g or ml	7.56 ± 0.87 % ID/g or ml	1.31 ± 014 % ID/g or ml	0.59 ± 0.04 % ID/g or ml	not observed; also recorded: scarcely observed	clearly more excellent	not subjected to defluorination	
